This is an account of results in ChEMBL document CHEMBL5131402, “Design, synthesis, and biological evaluation of phenyl thiazole-based AR-V7 degraders” (Bioorg Med Chem Lett, 2022).

A word on the EC50: it is the midpoint of the concentration-response curve. A word on the DC50: it is the midpoint of the concentration-degradation curve. Broadly, the inhibition is how much of the control response was suppressed. As usually defined, the solubility is the dissolved amount per volume that the medium holds. For orientation: Tmax means the time at which the peak concentration occurs. The term Cmax denotes the highest concentration seen after dosing. What is called AUC(0-inf) is total exposure, with the tail of the curve extrapolated. Low values mean less exposure, high ones more exposure. Broadly, the bioavailability is dose-corrected exposure relative to a reference, in per cent. Higher therefore signals much systemic uptake.

Series [1] relates to CWR22R. The series can be described thus: Antiproliferative activity against human 22Rv1 cells expressing […]. Format: functional, cell-based.
For series [2], the target named is von Hippel-Lindau disease tumor suppressor/Androgen receptor (Homo sapiens, UniProt P10275+P40337). Nature of the series: PROTAC activity at VHL/AR-V7 (unknown origin) expressed in human 22Rv1 cells assessed as induction of AR-V7 degradation. Format: cell-based.
Series [3] deals with CWR22R. Nature of the series: Antiproliferative activity against human 22Rv1 cells expressing […] assessed as inhibition of cell growth at 10 uM relative to control. The format is functional.
Series [4] concerns von Hippel-Lindau disease tumor suppressor/Androgen receptor (Homo sapiens), P10275+P40337 [UNDEFINED MUTATION]. Nature of the series: PROTAC activity at VHL/AR-V7 (unknown origin) expressed in human 22Rv1 cells assessed as induction of AR-V7 degradation my measuring maximum efficacy relative to control. Format: cell-based.
Series [5] deals with CWR22R. The series can be described thus: Antiproliferative activity against human 22Rv1 cells expressing […] assessed as maximum efficacy relative to control. The format is functional.
Series [6] is described as follows: Metabolic stability in mouse liver microsomes assessed as parent compound remaining measured at 1 hr. The format is ADME, Microsome. Particulars: read-out: Stability.
The nature of series [7]: Aqueous solubility of the compound at pH.7.4. The format is physicochemical.
Series [8] in a line: Tmax in CD1 mouse at 100 mg/kg, po administered as single dose. Format: ADME, organism-based. The note with it: in vivo.
Series [9] can be described thus: Terminal half life in CD1 mouse at 100 mg/kg, po administered as single dose. Format: ADME, organism-based. The note with it: in vivo, read-out: beta t1/2 (converted).
A short description of series [10]: Cmax in CD1 mouse at 30 mg/kg, po administered as single dose. The format is ADME, organism-based. More on the design: dose 30 mg/kg, route po. The note with it: in vivo.
Series [11] in a line: Cmax in CD1 mouse at 100 mg/kg, po administered as single dose. The format is ADME, organism-based. Details: dose 100 mg/kg, route po. The note with it: in vivo.
A short description of series [12]: AUC (0 to infinity) in CD1 mouse at 30 mg/kg, po administered as single dose. Format: ADME, organism-based. More on the design: time infinity, dose 30 mg/kg, route po. Particulars: in vivo.
Series [13] in a line: Tmax in CD1 mouse at 30 mg/kg, po administered as single dose. Format: ADME, organism-based. The note with it: in vivo.
Series [14] in a line: Oral bioavailability in CD1 mouse at 100 mg/kg administered as single dose. The format is ADME, organism-based. The note with it: in vivo.
A short description of series [15]: Terminal half life in CD1 mouse at 1 mg/kg, iv administered as single dose. Particulars: in vivo, read-out: beta t1/2 (converted). Format: ADME, organism-based.
A short description of series [16]: AUC (0 to infinity) in CD1 mouse at 1 mg/kg, iv administered as single dose. The format is ADME, organism-based. More on the design: time infinity, dose 1 mg/kg, route iv. Particulars: in vivo.
Series [17] can be described thus: Terminal half life in CD1 mouse at 30 mg/kg, po administered as single dose. The format is ADME, organism-based. The note with it: in vivo, read-out: beta t1/2 (converted).
Series [18] in a line: AUC (0 to infinity) in CD1 mouse at 100 mg/kg, po administered as single dose. Format: ADME, organism-based. Details: time infinity, dose 100 mg/kg, route po. Particulars: in vivo.
A short description of series [19]: Cmax in CD1 mouse at 1 mg/kg, iv administered as single dose. Format: ADME, organism-based. Details: dose 1 mg/kg, route iv. Particulars: in vivo.
Series [20] is described as follows: Oral bioavailability in CD1 mouse at 30 mg/kg administered as single dose. Format: ADME, organism-based. Particulars: in vivo.

Converted amounts (≈) assume the structure as drawn.

Chain of von Hippel-Lindau disease tumor suppressor/Androgen receptor (Homo sapiens), P10275+P40337 [UNDEFINED MUTATION] (P10275 whole entry, looked up, stated change not applied): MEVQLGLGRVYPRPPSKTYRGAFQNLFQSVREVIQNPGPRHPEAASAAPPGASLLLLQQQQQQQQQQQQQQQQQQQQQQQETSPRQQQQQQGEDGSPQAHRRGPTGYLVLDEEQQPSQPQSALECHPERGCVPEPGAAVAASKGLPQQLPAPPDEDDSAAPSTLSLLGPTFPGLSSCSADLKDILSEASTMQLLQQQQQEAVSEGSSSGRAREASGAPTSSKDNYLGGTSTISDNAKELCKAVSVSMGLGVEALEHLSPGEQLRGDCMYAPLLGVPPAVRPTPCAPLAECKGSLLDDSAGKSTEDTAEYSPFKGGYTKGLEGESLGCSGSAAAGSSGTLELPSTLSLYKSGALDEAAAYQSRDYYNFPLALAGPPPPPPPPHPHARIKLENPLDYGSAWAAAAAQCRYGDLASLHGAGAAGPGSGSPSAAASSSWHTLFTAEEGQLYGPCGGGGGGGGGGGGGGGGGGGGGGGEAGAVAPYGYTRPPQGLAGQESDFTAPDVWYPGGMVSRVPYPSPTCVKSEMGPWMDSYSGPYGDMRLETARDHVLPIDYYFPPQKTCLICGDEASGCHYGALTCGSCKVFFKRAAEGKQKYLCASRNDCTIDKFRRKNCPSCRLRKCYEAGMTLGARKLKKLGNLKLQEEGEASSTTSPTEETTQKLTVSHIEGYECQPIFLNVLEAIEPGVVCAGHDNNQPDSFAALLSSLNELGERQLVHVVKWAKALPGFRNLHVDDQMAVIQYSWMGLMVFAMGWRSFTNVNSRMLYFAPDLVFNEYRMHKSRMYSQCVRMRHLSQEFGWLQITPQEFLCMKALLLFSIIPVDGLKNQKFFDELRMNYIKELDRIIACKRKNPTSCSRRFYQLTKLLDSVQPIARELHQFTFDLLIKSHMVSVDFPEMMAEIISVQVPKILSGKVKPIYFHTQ
Chain of von Hippel-Lindau disease tumor suppressor/Androgen receptor (Homo sapiens), P10275+P40337 [UNDEFINED MUTATION] (P40337 whole entry, looked up, stated change not applied): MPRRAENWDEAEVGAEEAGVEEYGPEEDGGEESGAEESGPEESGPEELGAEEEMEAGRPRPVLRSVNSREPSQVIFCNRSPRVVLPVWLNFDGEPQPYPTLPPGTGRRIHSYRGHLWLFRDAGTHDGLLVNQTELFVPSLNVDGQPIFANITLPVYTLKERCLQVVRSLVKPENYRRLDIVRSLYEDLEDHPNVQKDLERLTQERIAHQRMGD
Chain of von Hippel-Lindau disease tumor suppressor/Androgen receptor (P10275 whole entry, looked up, stated change not applied): as the sequence (P10275 whole entry, looked up, stated change not applied) above
Chain of von Hippel-Lindau disease tumor suppressor/Androgen receptor (P40337 whole entry, looked up, stated change not applied): as the sequence (P40337 whole entry, looked up, stated change not applied) above

Consider `Cc1ncsc1-c1ccc([C@H](C)NC(=O)[C@@H]2C[C@@H](O)CN2C(=O)[C@@H](NC(=O)CCCCOc2ccc(-c3csc(N4CC(C)OC(C)C4)n3)cc2)C(C)(C)C)cc1` (stereo partly specified), for which, in the series on CWR22R [1], the EC50 was above 10 µM.
As for `Cc1ncsc1-c1ccc([C@H](C)NC(=O)[C@@H]2C[C@@H](O)CN2C(=O)[C@@H](NC(=O)COc2ccc(-c3csc(N4CCOCC4)n3)cc2)C(C)(C)C)cc1`, in series [2], the DC50 was above 10 µM.
Consider `Cc1ncsc1-c1ccc([C@H](C)NC(=O)[C@@H]2C[C@@H](O)CN2C(=O)[C@@H](NC(=O)CCCCOc2ccc(-c3csc(N4CCOCC4)n3)c(F)c2)C(C)(C)C)cc1`, for which the concentration giving a half-maximal response (EC50) in the series on CWR22R [1] is above 10 µM.
In turn, `Cc1ncsc1-c1ccc([C@H](C)NC(=O)[C@@H]2C[C@@H](O)CN2C(=O)[C@@H](NC(=O)CCCCOc2ccc(-c3csc(N4CC(C)OCC4C)n3)cc2)C(C)(C)C)cc1` (stereo partly specified) returned an EC50 with CWR22R [1] above 10 µM.
For `Cc1ncsc1-c1ccc([C@H](C)NC(=O)[C@@H]2C[C@@H](O)CN2C(=O)[C@@H](NC(=O)c2ccc(-c3csc(N4CCOCC4)n3)cc2)C(C)(C)C)cc1`, the DC50 in series [2] was above 10 µM.
In the series on CWR22R [1], `Cc1ncsc1-c1ccc(CNC(=O)[C@@H]2C[C@@H](O)CN2C(=O)[C@@H](NC(=O)C2(F)CC2)C(C)(C)C)c(OCCCOc2ccc(-c3csc(N4CCOCC4)n3)cc2)c1` showed an EC50 above 10 µM.
Turning to `Cc1ncsc1-c1ccc([C@H](C)NC(=O)[C@@H]2C[C@@H](O)CN2C(=O)[C@@H](NC(=O)CCCCOc2ccc(-c3csc(N4CC5(CCOCC5)C4)n3)cc2)C(C)(C)C)cc1`, in the series with CWR22R [1], the EC50 is above 10 µM.
Turning to `Cc1ncsc1-c1ccc([C@H](C)NC(=O)[C@@H]2C[C@@H](O)CN2C(=O)[C@@H](NC(=O)CCCCOc2ccc(-c3csc(N4CC5CCC(C4)O5)n3)cc2)C(C)(C)C)cc1`, the DC50 in series [2] was above 10 µM. The same compound yielded an EC50 in the series with CWR22R [1] above 10 µM.
For the compound `Cc1ncsc1-c1ccc(CNC(=O)[C@@H]2C[C@@H](O)CN2C(=O)[C@@H](NC(=O)C2(F)CC2)C(C)(C)C)c(OCCOc2ccc(-c3csc(N4CCOCC4)n3)cc2)c1`, the EC50 with CWR22R [1] is above 10 µM.
`Cc1ncsc1-c1ccc([C@H](C)NC(=O)[C@@H]2C[C@@H](O)CN2C(=O)[C@@H](NC(=O)CCCCOc2ccc(-c3csc(N4CCOC(C)C4)n3)cc2)C(C)(C)C)cc1` (stereo partly specified) gave an EC50 in the series with CWR22R [1] above 10 µM.
For the compound `c1ccc(-c2csc(N3CCOCC3)n2)cc1`, the DC50 in [2] is above 10 µM.
Consider `Cc1ncsc1-c1ccc([C@H](C)NC(=O)[C@@H]2C[C@@H](O)CN2C(=O)[C@@H](NC(=O)CCCCOc2ccc(-c3csc(N4CC5(COC5)C4)n3)cc2)C(C)(C)C)cc1`, for which the EC50 in the series on CWR22R [1] is above 10 µM.
Turning to `Cc1ncsc1-c1ccc([C@H](C)NC(=O)[C@@H]2C[C@@H](O)CN2C(=O)[C@@H](NC(=O)CCCCOc2ccc(-c3csc(N4CCOC(C)(C)C4)n3)cc2)C(C)(C)C)cc1`, the half-maximal degradation concentration (DC50) in series [2] is above 10 µM. Further, the inhibition at 10 µM in the series on CWR22R [3] was 66%.
On to `Cc1cc(OCCCCC(=O)N[C@H](C(=O)N2C[C@H](O)C[C@H]2C(=O)N[C@@H](C)c2ccc(-c3scnc3C)cc2)C(C)(C)C)ccc1-c1csc(N2CCOCC2)n1`, for which the EC50 with CWR22R [1] was above 10 µM.
On to `COc1c(-c2csc(N3CCOCC3)n2)ccc(OCCCCC(=O)N[C@H](C(=O)N2C[C@H](O)C[C@H]2C(=O)N[C@@H](C)c2ccc(-c3scnc3C)cc2)C(C)(C)C)c1F`, for which the DC50 in series [2] is above 10 µM. In the series with CWR22R [1], this compound came in with an EC50 above 10 µM.
Turning to `CCC1COCCN1c1nc(-c2ccc(OCCCCC(=O)N[C@H](C(=O)N3C[C@H](O)C[C@H]3C(=O)N[C@@H](C)c3ccc(-c4scnc4C)cc3)C(C)(C)C)cc2)cs1` (stereo partly specified), the EC50 in the series with CWR22R [1] was above 10 µM.
With `Cc1ncsc1-c1ccc([C@H](C)NC(=O)[C@@H]2C[C@@H](O)CN2C(=O)[C@@H](NC(=O)CCCCOc2ccc(-c3csc(N4CCOCC4C)n3)cc2)C(C)(C)C)cc1` (stereo partly specified), the 50% degradation concentration (DC50) in series [2] was above 10 µM. The compound also registered an EC50 with CWR22R [1] above 10 µM.
`Cc1ncsc1-c1ccc([C@H](C)NC(=O)[C@@H]2C[C@@H](O)CN2C(=O)[C@@H](NC(=O)CCCCOc2ccc(-c3csc(N4CCC5(COC5)C4)n3)cc2)C(C)(C)C)cc1` returned an EC50 with CWR22R [1] above 10 µM.
On to `Cc1ncsc1-c1ccc([C@H](C)NC(=O)[C@@H]2C[C@@H](O)CN2C(=O)[C@@H](NC(=O)CCCOc2ccc(-c3csc(N4CCOCC4)n3)cc2)C(C)(C)C)cc1`, for which the DC50 in series [2] came to 0.35 µM. For the same compound, the Emax was 53% in [4] and 90% in the series on CWR22R [5]. The compound also registered an EC50 in the series with CWR22R [1] of 1.36 µM. Also, the remaining at 1 h in series [6] was found to be 5%. Besides, in series [7], the solubility was below 2 µM.
Consider `Cc1ncsc1-c1ccc([C@H](C)NC(=O)[C@@H]2C[C@@H](O)CN2C(=O)[C@@H](NC(=O)CCCCCOc2ccc(-c3csc(N4CCOCC4)n3)cc2)C(C)(C)C)cc1`, for which, in series [2], the DC50 worked out at 1 µM. Moreover, the Emax in series [4] was 60%.
In the series on CWR22R [1], `Cc1ncsc1-c1ccc(CNC(=O)[C@@H]2C[C@@H](O)CN2C(=O)[C@@H](NC(=O)C2(F)CC2)C(C)(C)C)c(OCCCCCCOc2ccc(-c3csc(N4CCOCC4)n3)cc2)c1` came in with an EC50 above 10 µM.
The same measure, in the same setting: then `Cc1ncsc1-c1ccc([C@H](C)NC(=O)[C@@H]2C[C@@H](O)CN2C(=O)[C@@H](NC(=O)CCCCOc2ccc(-c3csc(N4CCOCC4)n3)cc2[N+](=O)[O-])C(C)(C)C)cc1`, with above 10 µM; and `Cc1ncsc1-c1ccc(CNC(=O)[C@@H]2C[C@@H](O)CN2C(=O)[C@@H](NC(=O)C2(F)CC2)C(C)(C)C)c(OCCCCCCCCOc2ccc(-c3csc(N4CCOCC4)n3)cc2)c1`, with above 10 µM.
On to `Cc1ncsc1-c1ccc([C@H](C)NC(=O)[C@@H]2C[C@@H](O)CN2C(=O)[C@@H](NC(=O)CCOc2ccc(-c3csc(N4CCOCC4)n3)cc2)C(C)(C)C)cc1`, for which the DC50 in series [2] was above 10 µM.
In the case of `Cc1ncsc1-c1ccc([C@H](C)NC(=O)[C@@H]2C[C@@H](O)CN2C(=O)[C@@H](NC(=O)CCCCOc2ccc(-c3csc(N4CCOCC4)n3)cc2)C(C)(C)C)cc1`, the time of peak concentration (Tmax) in [8] was 79.8 min; in series [13] it was 45 min. The half-life was 42 min in [9], 54 min in series [15] and 60 min in series [17]. Also, the Cmax in series [10] stood at 773 ng/mL; in [11] it was 1810 ng/mL; in series [19] it was 2900 ng/mL. In addition, in [2], the half-maximal degradation concentration (DC50) was found to be 0.32 µM. Besides, the Emax in [4] turned out to be 67%; in the series with CWR22R [5] it was 94%. Besides, the AUC(0-inf) worked out at 1980 ng·h/mL in series [12], 1290 ng·h/mL in series [16] and 5950 ng·h/mL in series [18]. The bioavailability came out at 4.6% in [14] and 5% in [20]. For the same compound, a half-maximal response with CWR22R [1] (EC50) required 0.88 µM. In series [6], the remaining at 1 h is 6%. The solubility in [7] is 3.5 µM (≈ 2.76 µg/mL).
For `Cc1ncsc1-c1ccc([C@H](C)NC(=O)[C@@H]2C[C@@H](O)CN2C(=O)[C@@H](NC(=O)CCCCOc2ccc(-c3csc(N4CCOCC4)n3)cc2F)C(C)(C)C)cc1`, the EC50 in the series with CWR22R [1] is above 10 µM.
The compound `Cc1ncsc1-c1ccc(CNC(=O)[C@@H]2C[C@@H](O)CN2C(=O)[C@@H](NC(=O)C2(F)CC2)C(C)(C)C)c(OCCCCOc2ccc(-c3csc(N4CCOCC4)n3)cc2)c1` registered a 50% effective concentration (EC50) with CWR22R [1] above 10 µM.
As for `Cc1ncsc1-c1ccc([C@H](C)NC(=O)[C@@H]2C[C@@H](O)CN2C(=O)[C@@H](NC(=O)CCCCOc2ccc(-c3csc(N4CCOCC4)n3)cc2N)C(C)(C)C)cc1`, in the series with CWR22R [1], the EC50 was above 10 µM.
